# Measurements taken from patent US20100034746A1, “ANIMAL MODEL, SYSTEM, AND METHOD FOR SCREENING COMPOUNDS FOR ANTI[…]/OR TH[…]” (Piramal Life Sciences Limited, priority 2007, published 2010).
# Tests used:
# thrombus formation [1] = experiment: Cross-circulation thrombosis model, cannulae connected with latex tubing; survival time of recipient after blocking trachea; type: in vivo, Wistar rats; settings: cannula with latex tubing; for Survival time (min) Mean ± S.E.: recipient rat; for Survival time of the recipients, result in words: compared with vehicle/saline treated control animals
# From the text: Wistar rats (either sex; weighing 290-310 g) were used throughout the experiments. Animals were housed and cared for in accordance with the Guidelines in force published by CPCSEA (Committee for the Purpose of Control and Supervision of Experiments on Animals), Tamil Nadu, India. Procedures using laboratory animals were approved by the IAEC (Institutional Animal Ethics Committee) of the Research Centre of Nicholas Piramal India Limited, Mumbai, India.
# In one experiment a pair of rats were anesthetized using urethane (1.5 g/kg; Fluka) by intra-peritoneal administration. After anesthetization, one of the jugular veins and carotid arteries of each of the rats were exposed and clamped. Polyethylene cannulae (0.76 mm ID and 1.22 mm OD, polyethylene tubing, each 6.0 cm in length; Portex Ltd) filled with normal saline (0.9%, w/v, sodium chloride, Merck) were introduced into these vessels and secured tightly by tying with cotton thread (No. 40, Madura Coats Ltd., India). Furthermore, trachea of any one of the rats was exposed and a piece of thread was put loosely around it (recipient). Then the arterial cannula of one of the rats was connected to the venous cannula of the other rat and vice versa, using 2.5 cm long piece of latex tubing (0.89 mm ID; PharMed, Cole-Parmer). FIG. 1 schematically illustrates these rats.
# The experiment was initiated by opening the clamps on all the vessels, which initiated cross circulation of blood between the two animals. […] FIG. 2 schematically illustrates these rats.
# Survival was monitored by the animal's effort to respire.
# In another experiment, pairs of rats were treated with antithrombotic/thrombolytic agents selected from the following list:
# The drug suspensions for oral use were prepared in the vehicle, carboxymethyl cellulose (CMC, 0.5% w/v, Sigma), using polyoxyethylenesorbitan monooleate (Tween 80, Sigma) as a wetting agent. Commercially available streptokinase solution was diluted with normal saline to an appropriate concentration for the i.v. use.
# Vehicle/drugs were administered to rats orally at the doses mentioned above, in a volume of 1 ml/kg. With the exception of streptokinase, all other drugs were administered once daily for three consecutive days and the experiment was performed on the third day, one hour after the administration of the last dose. The vehicle-treated animals were used as controls.
# Streptokinase was administered as a continuous infusion at a dose of 60,000 I.U./ml/kg/hour intravenously, through the femoral vein of the recipient and was administered only on the day of experiment. As a source of plasminogen, human plasma was injected to the animal intravenously at a dose of 1 ml/kg, just before blocking the trachea. Streptokinase infusion was initiated two minutes after blocking the trachea of the recipient. Saline-infused animals were used as control for streptokinase-treated animals.
# (§1) The survival time of the recipients in the abovementioned experiments was recorded.
# thrombus formation [2] = experiment: Cross-circulation thrombosis model, cannulae connected with damaged rat thoracic aorta; survival time of recipient after blocking trachea; type: in vivo, Wistar rats
# From the text: In the present experiment, the piece of latex tubing used in Example 1 was replaced by a piece of rat thoracic aorta with damaged endothelium, so that the anti-thrombotic effect of the compounds could be studied in a near natural situation.
# Maintenance of a patent vasculature is critical to provide blood flow to dependent tissues. […] Following vessel injury, active hemostasis results from vasoconstriction, adherence of activated platelets to damaged endothelium, their aggregation and activation of coagulation enzymes, finally resulting into thrombosis. It has been shown that chronic carbon tetrachloride treatment to rats causes serious damage to vascular endothelial cells and thus the blood vessels get damaged. It was thought of using these damaged vessels, instead of latex tubing (used in Example 1), to connect arterial and venous cannulae of donor and recipient, in order to mimic the physiological process of thrombus formation.
# They were administered carbon tetrachloride (Fluka) in olive oil (Figaro, Spain) (1:1 v/v), 0.5 ml/kg, intraperitoneally, twice a week for eight continuous weeks. […]
# In spite of the blocked trachea, the recipient survived, as long as the oxygenated blood supply from the donor continued. Survival was monitored by the animal's effort to respire. […]
# as §1
# [3] = 20 mg/kg p.o. once daily for three days, 1 h after last dose, CMC control 10.9 ± 0.70
Compound,Survival time (min) Mean ± S.E. (thrombus formation [1]; [3]) [min],"Survival time of the recipients, result in words (thrombus formation [1])",other results
"COC(=O)[C@H](c1ccccc1Cl)N1CCc2sccc2C1 [Clopidogrel, Clopidogrel bisulphate]",47.8 ± 3.78,,
Streptokinase,,significant prolongation of the survival time,"Survival time (min) Mean ± S.E. (thrombus formation [1]; 60,000 IU/ml/kg/hr i.v. continuous infusion, human plasma 1 ml/kg i.v., saline control 10.4 ± 0.91): 89.5 ± 10.55 min"
"CC(=O)Oc1ccccc1C(=O)O [Aspirin, acetylsalicylic acid]",,Significant increase in the survival time,"Survival time (min) Mean ± S.E. (thrombus formation [1]; 20 mg/kg p.o. once daily for three days, 1 h after last dose, CMC control 10.9 ± 0.70, 20 mg/kg): 45.3 ± 4.40 min; Survival time of the recipient, result in words (thrombus formation [2]; cannula with damaged blood vessel, compared with appropriate control animals): Significant increase in the survival time; Survival time (min) Mean ± S.E. (thrombus formation [2]; recipient rat, cannula with damaged thoracic aorta, 20 mg/kg p.o. once daily for three days, CMC control 5.18 ± 0.99): 33.9 ± 4.58 min"
OCCN(CCO)c1nc(N2CCCCC2)c2nc(N(CCO)CCO)nc(N3CCCCC3)c2n1 [Dipyridamole],38.5 ± 1.55,,
